Key:
[1] = DRUGMATRIX: Nicotinic Acetylcholine radioligand binding (ligand: [125I] Epibatidine); type: cell membranes, Membrane; conditions: imr-32; Not Active = under 50% inhibition at 10 µM
Glucocorticoid receptor = target: T1, Glucocorticoid receptor (Homo sapiens, UniProt P04150); conditions: hela s3; note: in other assays of this panel Not Active means under 50% inhibition at 10 µM
T1 sequence (P04150 whole entry): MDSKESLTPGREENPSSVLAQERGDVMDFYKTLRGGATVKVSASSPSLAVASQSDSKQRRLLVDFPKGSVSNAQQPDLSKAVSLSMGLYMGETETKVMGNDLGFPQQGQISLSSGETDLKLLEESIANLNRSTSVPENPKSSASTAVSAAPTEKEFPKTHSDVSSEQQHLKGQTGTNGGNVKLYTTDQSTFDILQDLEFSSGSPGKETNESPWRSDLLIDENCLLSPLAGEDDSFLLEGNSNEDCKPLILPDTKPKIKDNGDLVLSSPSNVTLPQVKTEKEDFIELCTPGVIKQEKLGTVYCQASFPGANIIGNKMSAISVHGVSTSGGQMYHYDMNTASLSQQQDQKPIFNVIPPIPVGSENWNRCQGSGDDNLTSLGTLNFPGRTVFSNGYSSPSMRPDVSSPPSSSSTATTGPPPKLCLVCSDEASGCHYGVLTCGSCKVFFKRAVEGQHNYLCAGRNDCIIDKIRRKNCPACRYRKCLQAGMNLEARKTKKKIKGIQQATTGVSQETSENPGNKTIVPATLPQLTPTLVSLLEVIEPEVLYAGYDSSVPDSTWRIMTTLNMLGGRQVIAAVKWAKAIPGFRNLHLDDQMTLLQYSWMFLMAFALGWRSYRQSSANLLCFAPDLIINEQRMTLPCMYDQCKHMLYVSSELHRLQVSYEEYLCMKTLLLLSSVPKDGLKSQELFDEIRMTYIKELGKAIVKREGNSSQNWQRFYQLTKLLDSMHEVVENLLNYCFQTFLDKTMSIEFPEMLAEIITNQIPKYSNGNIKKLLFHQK

[2] = DRUGMATRIX: Purinergic P2X radioligand binding (ligand: [3H] alpha, beta-Methylene-ATP); type: cell membranes, Oryctolagus cuniculus, New Zealand albino, Urinary bladder, Membrane; conditions: Not Active = under 50% inhibition at 10 µM
[3] = DRUGMATRIX: Phorbol Ester radioligand binding (ligand: [3H] PDBu); type: cell membranes, Mus musculus, ICR, Brain, Membrane; conditions: Not Active = under 50% inhibition at 10 µM
[4] = target: Sodium-dependent dopamine transporter (Homo sapiens, UniProt Q01959); assay: DRUGMATRIX: Dopamine Transporter radioligand binding (ligand: [125I] RTI-55); type: cell membranes, CHO-K1, Membrane; conditions: cho-k1; Not Active = under 50% inhibition at 10 µM
[5] = DRUGMATRIX: Interleukin IL-1 radioligand binding (ligand: [125I] interleukin 1beta); type: cell membranes, Membrane; conditions: nih3t3; Not Active = under 50% inhibition at 10 µM
[6] = DRUGMATRIX: Imidazoline I2, Central radioligand binding (ligand: [3H] Idazoxan); type: cell membranes, Rattus norvegicus, Wistar, Cerebral cortex, Membrane; conditions: Not Active = under 50% inhibition at 10 µM
[7] = target: Beta-1 adrenergic receptor (Homo sapiens, UniProt P08588); assay: DRUGMATRIX: Adrenergic beta1 radioligand binding (ligand: [125I] Cyanopindolol); type: cell membranes, CHO-K1, Membrane; conditions: cho-k1; Not Active = under 50% inhibition at 10 µM
[8] = DRUGMATRIX: Serotonin (5-Hydroxytryptamine) 5-HT3 radioligand binding (ligand: [3H] GR-65630); type: cell membranes, Membrane; conditions: hek293; Not Active = under 50% inhibition at 10 µM

Sequence of Sodium-dependent dopamine transporter (Q01959 whole entry): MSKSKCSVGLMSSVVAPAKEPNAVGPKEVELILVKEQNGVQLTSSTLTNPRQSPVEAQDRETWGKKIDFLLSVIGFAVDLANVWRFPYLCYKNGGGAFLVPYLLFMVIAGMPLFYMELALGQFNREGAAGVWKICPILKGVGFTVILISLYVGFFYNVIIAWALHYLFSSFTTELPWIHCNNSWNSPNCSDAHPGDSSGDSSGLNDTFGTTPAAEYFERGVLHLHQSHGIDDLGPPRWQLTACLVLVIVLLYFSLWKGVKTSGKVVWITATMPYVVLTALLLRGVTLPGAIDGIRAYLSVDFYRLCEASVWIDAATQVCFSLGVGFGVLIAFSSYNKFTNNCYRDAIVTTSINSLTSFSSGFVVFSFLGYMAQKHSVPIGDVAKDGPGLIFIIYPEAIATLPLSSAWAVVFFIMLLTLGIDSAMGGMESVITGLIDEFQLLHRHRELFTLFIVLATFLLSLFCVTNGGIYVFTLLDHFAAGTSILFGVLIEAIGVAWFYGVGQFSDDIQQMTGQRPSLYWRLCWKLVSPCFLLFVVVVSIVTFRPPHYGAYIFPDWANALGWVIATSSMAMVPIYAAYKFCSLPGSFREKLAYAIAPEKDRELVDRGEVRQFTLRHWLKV
Sequence of Beta-1 adrenergic receptor (P08588 whole entry): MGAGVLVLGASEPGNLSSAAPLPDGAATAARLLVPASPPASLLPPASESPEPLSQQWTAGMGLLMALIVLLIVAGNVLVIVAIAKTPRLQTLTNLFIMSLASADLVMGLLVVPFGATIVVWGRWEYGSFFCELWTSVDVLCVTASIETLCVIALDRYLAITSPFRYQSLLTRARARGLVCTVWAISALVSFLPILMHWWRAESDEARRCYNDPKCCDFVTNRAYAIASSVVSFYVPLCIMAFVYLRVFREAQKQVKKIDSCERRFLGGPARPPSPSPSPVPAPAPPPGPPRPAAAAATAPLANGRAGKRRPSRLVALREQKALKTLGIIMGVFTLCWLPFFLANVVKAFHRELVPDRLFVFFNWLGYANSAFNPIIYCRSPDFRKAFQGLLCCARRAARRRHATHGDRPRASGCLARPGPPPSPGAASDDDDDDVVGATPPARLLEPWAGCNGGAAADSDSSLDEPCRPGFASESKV

CN1CCN(CCCN2c3ccccc3Sc3ccc(C(F)(F)F)cc32)CC1 [TRIFLUOPERAZINE]
Not Active: IC50 [1] | Ki [1] | IC50 (Glucocorticoid receptor) | IC50 [2] | Ki [2] | IC50 [3] | Ki [3] | IC50 [4] | IC50 [5] | Ki [5] | IC50 [6] | Ki [6] | IC50 [7] | IC50 [8] | Ki [8]

TRANSPLATIN
Not Active: IC50 [1] | Ki [1] | IC50 (Glucocorticoid receptor) | Ki (Glucocorticoid receptor) | IC50 [2] | Ki [2] | IC50 [3] | Ki [3] | IC50 [4] | Ki [4] | IC50 [5] | Ki [5] | IC50 [6] | Ki [6] | IC50 [7] | Ki [7] | IC50 [8] | Ki [8]

ZIRCONIUM(IV) CHLORIDE
Not Active: IC50 [1] | Ki [1] | IC50 (Glucocorticoid receptor) | Ki (Glucocorticoid receptor) | IC50 [2] | Ki [2] | IC50 [3] | Ki [3] | IC50 [4] | Ki [4] | IC50 [5] | Ki [5] | IC50 [6] | Ki [6] | IC50 [7] | Ki [7] | IC50 [8] | Ki [8]
